From patent US20090036516A1, “COMPOUNDS FOR TREATING METABOLIC SYNDROME” (CTG PHARMA S.R.L., priority 2003, published 2009)

Columns and labels:
[1] = system: patients with type II diabetes; conditions: oral 600 mg once to 3 times a day; cited from earlier work
[2] = system: patients with type II diabetes; conditions: single parenteral dose of 1,000 mg; cited from earlier work
[3] = system: diabetic neuropathy; conditions: intravenous 600 mg a day for 3 weeks; cited from earlier work
[4] = system: male Wistar rats; assay: oxidative stress-induced (BSO) hypertension in rats; format: in vivo; conditions: BSO 30 mmol/L/day in drinking water for seven days; compound 50 mg/kg/day for seven days
Description: It is widely known that metabolic syndrome is generally accompanied by oxidative stress. Also in the paper of Ogihara (Ogihara T. et al. “Oxidative stress induces insulin resistance by activating the nuclear factor-kB pathway and disrupting normal subcellular distribution of phosphatidylinositol 3-kinase” in Diabetologia 47, 794-805 (2004) such relationship was found. The effect of oxidative stress-induced hypertension in rats has been evaluated in male Wistar rats (10 animals/group). Hypertension was induced by oral administration of buthionine sulphoximine (BSO) (30 mmol/L/day) to the drinking water for seven days.
Compounds of examples 2, 3 and 5 suspended in the vehicle at the dose of 50 mg/kg/day were administered for seven days and some parameters measured in the experiments are reported in table 2.

[5] = system: high-fat diet fed insulin resistant mice; assay: hyperinsulinemic euglycemic clamp in high-fat diet fed insulin resistant mice; format: in vivo; conditions: 50 mg/kg/day by gavage for 7 days; steady state phase of hyperinsulinemic euglycemic clamp; n = 8
Protocol: The effects of administration of 50 mg/kg/day of the compound of Example 2, by gavages to high-fat diet fed insulin resistant mice [Cook et al. Diabetes, 53:2067-72, 2004] for 7 days, in terms of glucose infusion rate (mg/kg per min, during the steady state phase of hyperinsulinemic euglycemic clamp studies) were reported in the following table 1: […]

## O=C(O)CCCC[C@@H]1CCSS1 (racemic) [lipoic acid]
[1]
  insulin sensitivity: able to influence the insulin sensitivity
[2]
  glucose utilization: distinct improvement
[3]
  symptomatic complaints: decreased

## CC(=O)Oc1ccccc1C(=O)Oc1ccc(-c2cc(=S)ss2)cc1 [Cpd Ex 5, 2-acetoxy-benzoic acid 4-(thioxo-5H-[1,2]dithiol-3-yl)-phenyl ester]
[4]
  % Increase systolic blood pressure: 10%
  % Plasma glutathione decrease: 5%
  Endothelium function (% contraction induced by acetylcholine): 88%
[5]
  glucose infusion rate: 86.4 mg/kg per min

## CCOC(=O)c1ccccc1OC(=O)CCCCC1CCSS1 (stereo not shown) [Cpd Ex 6, 2-(5-[1,2]Dithiolan-3-yl-pentanoyloxy)-benzoic acid ethyl ester]
[4]
  % Increase systolic blood pressure: 50%
  % Plasma glutathione decrease: 20%
  Endothelium function (% contraction induced by acetylcholine): 60%

## O=C(Oc1ccc(-c2cc(=S)ss2)cc1)c1ccccc1O [Cpd Ex 8, 2-hydroxybenzoic acid 4-(thioxo-5H-[1,2]dithiol-3-yl)-phenyl ester]
[4]
  % Increase systolic blood pressure: 15%
  % Plasma glutathione decrease: 7%
  Endothelium function (% contraction induced by acetylcholine): 80%
